Publication PMC9281440, “In Vivo Distribution and Therapeutic Efficacy of Radioiodine-Labeled pH-Low Insertion Peptide Variant 3 in a Mouse Model of Breast Cancer” (Molecular Imaging, 2022)
Peptide text beside a SMILES is read from it.

Test: In vitro stability of radiolabeled peptides in PBS at room temperature
Type: physicochemical
Settings: room temperature (25°C), PBS buffer, radiochemical purity, thin-layer chromatography
Experimental: WT-pHLIP and Var3-pHLIP were labeled with ^125I for in vivo imaging experiments, and Var3-pHLIP was labeled with ^131I for therapeutic efficacy experiments. Radioactive iodine binds to tyrosine residues in pHLIPs. Peptides were dissolved in 200 μL of 0.02 M PBS (pH 7.4) to reach a concentration of 1 mg/mL and mixed with 10 μL of Na^125I (74 MBq) or 20 μL of Na^131I (925 MBq). Chloramine-T (20 μL, 5 mg/mL) was added to the test tubes and mixed for 70 s at room temperature. The reaction was stopped by adding 200 μL of sodium metabisulfite (5 mg/mL). The peptides were eluted in ethanol through a C18 column equilibrated with 20 mL of 100% ethanol and 20 mL of distilled water. The radioactive purity of ^125I-WT-pHLIP, ^125I-Var3-pHLIP, and ^131I-Var3-pHLIP was determined using thin-layer chromatography. Furthermore, the radiochemical purity of ^125I-WT-pHLIP, ^125I-Var3-pHLIP, and ^131I-Var3-pHLIP was measured, and chemical stability was determined at 24 and 48 h at room temperature (25°C) in PBS and at 37°C in serum.

## CC(C)C[C@H](NC(=O)[C@H](Cc1ccc(O)c(I)c1)NC(=O)[C@H](C)NC(=O)[C@H](CCCNC(=N)N)NC(=O)[C@H](Cc1c[nH]c2ccccc12)NC(=O)[C@@H]1CCCN1C(=O)[C@H](CC(N)=O)NC(=O)[C@H](CCC(N)=O)NC(=O)[C@H](CC(=O)O)NC(=O)[C@H](CC(=O)O)NC(=O)[C@H](CS)NC(=O)[C@H](C)N)C(=O)N[C@@H](CC(=O)O)C(=O)N[C@@H](CC(C)C)C(=O)N[C@@H](CC(C)C)C(=O)N[C@@H](Cc1ccccc1)C(=O)N1CCC[C@H]1C(=O)N[C@H](C(=O)N[C@@H](CC(=O)O)C(=O)N[C@H](C(=O)N[C@@H](CC(C)C)C(=O)N[C@@H](CC(C)C)C(=O)N[C@@H](CC(C)C)C(=O)N[C@@H](CC(=O)O)C(=O)N[C@@H](CC(C)C)C(=O)N[C@@H](CC(C)C)C(=O)N[C@@H](Cc1c[nH]c2ccccc12)C(=O)N[C@@H](CCCCN)C(=O)O)[C@@H](C)O)[C@@H](C)O [125I-Var3-pHLIP] (HELM PEPTIDE1{A.C.D.D.Q.N.P.W.R.A.[O=C([C@H](Cc1ccc(O)c(I)c1)N[*:1])[*:2]].L.D.L.L.F.P.T.D.T.L.L.L.D.L.L.W.K}$$$$V2.0; N-terminus and C-terminus assumed)
24 h
  stability: > 95%
48 h
  stability: > 90%
